According to patent US10597388B2, “Pyridazinone herbicides” (FMC CORPORATION, priority 2014, dated 2020):

Experiments:
Format in all cases: in vivo
[1] = system: barnyardgrass (Echinochloa crus-galli); assay: Test B flooded paddy test; details: 250 g ai/ha, Flood; visual rating on scale of 0 to 100 where 0 is no effect and 100 is complete control; 13 to 15 d after treatment
Protocol: (§1) Plant species in the flooded paddy test selected from rice (Oryza sativa), sedge, umbrella (small-flower umbrella sedge, Cyperus difformis), ducksalad (Heteranthera limosa), and barnyardgrass (Echinochloa crus-galli) were grown to the 2-leaf stage for testing. At time of treatment, test pots were flooded to 3 cm above the soil surface, treated by application of test compounds directly to the paddy water, and then maintained at that water depth for the duration of the test. Treated plants and controls were maintained in a greenhouse for 13 to 15 d, after which time all species were compared to controls and visually evaluated. Plant response ratings, summarized in Table B, are based on a scale of 0 to 100 where 0 is no effect and 100 is complete control. A dash (-) response means no test result.

[2] = system: ducksalad (Heteranthera limosa); assay: Test B flooded paddy test; details: 250 g ai/ha, Flood; visual rating on scale of 0 to 100 where 0 is no effect and 100 is complete control; 13 to 15 d after treatment
Protocol: as §1

[3] = system: rice (Oryza sativa); assay: Test B flooded paddy test; details: 250 g ai/ha, Flood; visual rating on scale of 0 to 100 where 0 is no effect and 100 is complete control; 13 to 15 d after treatment
Protocol: as §1

[4] = system: sedge, umbrella (small-flower umbrella sedge, Cyperus difformis); assay: Test B flooded paddy test; details: 250 g ai/ha, Flood; visual rating on scale of 0 to 100 where 0 is no effect and 100 is complete control; 13 to 15 d after treatment
Protocol: as §1

[5] = system: ryegrass, Italian (Italian ryegrass, Lolium multiflorum); assay: Test A greenhouse herbicide test, pre- and postemergence
Description: (§2) Seeds of plant species selected from barnyardgrass (Echinochloa crus-galli), kochia (Kochia scoparia), ragweed (common ragweed, Ambrosia elatior), ryegrass, Italian (Italian ryegrass, Lolium multiflorum), crabgrass, large (large crabgrass, Digitaria sanguinalis), foxtail, giant (giant foxtail, Setaria faberii), momingglory (Ipomoea spp.), pigweed (Amaranthus retroflexus), velvetleaf (Abutilon theophrasti), wheat (Triticum aestivum), and corn (Zea mays) were planted into a blend of loam soil and sand and treated preemergence with a directed soil spray using test chemicals formulated in a non-phytotoxic solvent mixture which included a surfactant.
(§3) At the same time, plants selected from these crop and weed species and also blackgrass (Alopecurus myosuroides), and galium (catchweed bedstraw, Galium aparine) were planted in pots containing the same blend of loam soil and sand and treated with postemergence applications of test chemicals formulated in the same manner. Plants ranged in height from 2 to 10 cm and were in the one- to two-leaf stage for the postemergence treatment. Treated plants and untreated controls were maintained in a greenhouse for approximately 10 d, after which time all treated plants were compared to untreated controls and visually evaluated for injury. Plant response ratings, summarized in Table A, are based on a 0 to 100 scale where 0 is no effect and 100 is complete control. A dash (-) response means no test result.

[6] = system: barnyardgrass (Echinochloa crus-galli); assay: as above
Description: as §2, §3

[7] = system: corn (Zea mays); assay: as above; details: Postemergence; for Plant response rating, Corn: 125 g ai/ha, 0 to 100 scale where 0 is no effect and 100 is complete control; for Corn plant response rating: 500 g ai/ha, 0 to 100 scale, 0 is no effect, 100 is complete control
Description: as §2, §3

[8] = system: ragweed (common ragweed, Ambrosia elatior); assay: as above
Description: as §2, §3

[9] = system: kochia (Kochia scoparia); assay: as above
Description: as §2, §3

[10] = system: foxtail, giant (giant foxtail, Setaria faberii); assay: as above
Description: as §2, §3

[11] = system: wheat (Triticum aestivum); assay: as above; details: Postemergence; for Plant response rating, Wheat: 125 g ai/ha, 0 to 100 scale where 0 is no effect and 100 is complete control; for Wheat plant response rating: 500 g ai/ha, 0 to 100 scale, 0 is no effect, 100 is complete control
Description: as §2, §3

[12] = system: pigweed (Amaranthus retroflexus); assay: as above
Description: as §2, §3

[13] = system: galium (catchweed bedstraw, Galium aparine); assay: Test A greenhouse herbicide test, postemergence; details: for Plant response rating, Galium: 125 g ai/ha, 0 to 100 scale where 0 is no effect and 100 is complete control; for Galium plant response rating: 500 g ai/ha, 0 to 100 scale, 0 is no effect, 100 is complete control
Procedure, shortened: (§4)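 Pot-grown plants (loam soil/sand blend), 2–10 cm tall at the one- to two-leaf stage, received postemergence sprays of formulated test chemical. After about 10 d in the greenhouse, injury was rated visually against untreated controls on a 0 (no effect) to 100 (complete control) scale.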

[14] = system: blackgrass (Alopecurus myosuroides); assay: Test A greenhouse herbicide test, postemergence; details: for Plant response rating, Blackgrass: 125 g ai/ha, 0 to 100 scale where 0 is no effect and 100 is complete control; for Blackgrass plant response rating: 500 g ai/ha, 0 to 100 scale, 0 is no effect, 100 is complete control
Procedure, shortened: as §4

[15] = Postemergence, 125 g ai/ha, 0 to 100 scale where 0 is no effect and 100 is complete control
[16] = Postemergence, 500 g ai/ha, 0 to 100 scale, 0 is no effect, 100 is complete control
[17] = Preemergence, 125 g ai/ha, 0 to 100 scale where 0 is no effect and 100 is complete control
[18] = Preemergence, 500 g ai/ha, 0 to 100 scale, 0 no effect, 100 complete control

| Compound | Plant response rating, Barnyardgrass [1] | Plant response rating, Ducksalad [2] | Plant response rating, Rice [3] | Plant response rating, Sedge, Umbrella [4] | Plant response rating, Ryegrass, Italian [5, 15] | Ryegrass, Italian plant response rating [5, 16] | Ryegrass, Italian plant response rating [5, 17] | Plant response rating, Ryegrass, Italian [5, 18] | Plant response rating, Barnyardgrass [6, 15] | Barnyardgrass plant response rating [6, 16] | Barnyardgrass plant response rating [6, 17] | Plant response rating, Barnyardgrass [6, 18] | Plant response rating, Corn [7] | Corn plant response rating [7] | Plant response rating, Ragweed [8, 15] | Ragweed plant response rating [8, 16] | Ragweed plant response rating [8, 17] | Plant response rating, Ragweed [8, 18] | Plant response rating, Kochia [9, 15] | Kochia plant response rating [9, 16] | also measured |
| --- | --- | --- | --- | --- | --- | --- | --- | --- | --- | --- | --- | --- | --- | --- | --- | --- | --- | --- | --- | --- | --- |
| Cc1cc(C)c2c(-c3c(OC(=O)C(C)(C)C)c(C)nn(C)c3=O)c(C)sc2c1 [Compound 45] | 0 | 0 | 0 | 0 | 0 | 0 | 0 | 0 | 0 | 0 | 0 | 0 | 0 | 0 | 0 | 0 | 0 | 0 | 0 | 0 | Kochia plant response rating [9, 17]: 0; Plant response rating, Kochia [9, 18]: 0; Plant response rating, Foxtail, Giant [10, 15]: 0; Foxtail, Giant plant response rating [10, 16]: 0; Foxtail, Giant plant response rating [10, 17]: 0; Plant response rating, Foxtail, Giant [10, 18]: 0; Plant response rating, Wheat [11]: 0; Wheat plant response rating [11]: 0; Plant response rating, Pigweed [12, 15]: 0; Pigweed plant response rating [12, 16]: 0; Pigweed plant response rating [12, 17]: 0; Plant response rating, Pigweed [12, 18]: 0; Plant response rating, Galium [13]: 0; Galium plant response rating [13]: 0; Plant response rating, Blackgrass [14]: 0; Blackgrass plant response rating [14]: 0 |
| Cc1ccc(-c2c(O)cnn(C)c2=O)c2ccccc12 [Compound 50] | 0 | 0 | 0 | 0 | 20 | 40 | 0 | 10 | 0 | 0 | 0 | 0 | 0 | 0 | 0 | 20 | 0 | 0 | 0 | 20 | Kochia plant response rating [9, 17]: 0; Plant response rating, Kochia [9, 18]: 0; Plant response rating, Foxtail, Giant [10, 15]: 0; Foxtail, Giant plant response rating [10, 16]: 0; Foxtail, Giant plant response rating [10, 17]: 0; Plant response rating, Foxtail, Giant [10, 18]: 0; Plant response rating, Wheat [11]: 0; Wheat plant response rating [11]: 0; Plant response rating, Pigweed [12, 15]: 20; Pigweed plant response rating [12, 16]: 50; Pigweed plant response rating [12, 17]: 0; Plant response rating, Pigweed [12, 18]: 0; Plant response rating, Galium [13]: 60; Galium plant response rating [13]: 80; Plant response rating, Blackgrass [14]: 0; Blackgrass plant response rating [14]: 10 |
